Reference: patent US20150353495A1 (PORTOLA PHARMACEUTICALS, INC., priority 2010, published 2015)

Tests used:
Assay type in all cases: biochemical
[1] = biological target: T1, JAK2 (Homo sapiens, UniProt O60674); test: Z'-LYTE kinase assay JAK2
T1 construct: 5 μl of catalytic domain recombinant Kinase enzyme+Tyr peptide substrate (Invitrogen, CA); purchased Invitrogen
Protocol: (§1) JAK and TYK2 tyrosine phosphorylation activity is measured using the Z′-LYTE™ Technology developed by Invitrogen Corporation (Carlsbad, Calif.). For JAK1, JAK2 and JAK3 the Z′-LYTE™ Kinase Assay Kit-Tyr6 Peptide (part number PV4122) was used. For TYK2 the Z′-LYTE™ Kinase Assay Kit-Tyr6 Peptide (part number PV3192) was used. The Z′-LYTE™ biochemical assay employs a fluorescence resonance energy transfer (FRET) coupled-enzyme format and is based on the differential sensitivity of phosphorylated and non-phosphorylated peptides to proteolitic cleavage. The assay uses a synthetic peptide substrate that is labelled with a donor fluorophore (coumarin) and an acceptor fluorophore (fluorescein) that make up a FRET pair. In the primary reaction (the Kinase Reaction), the kinase transfers the γ-phosphate of ATP to a single tyrosine residue on the substrate, while the presence of a kinase inhibitor in the primary reaction suppresses phosphorylation. In the secondary reaction (the Development Reaction), a site-specific protease (the Development Reagent) is added. The development buffer quenches the Kinase Reaction, while the protease recognizes and cleaves non-phosphorylated Z′-LYTE™ peptide substrate. Cleavage disrupts FRET between the donor and acceptor fluorophores on the non-phosphoryleted substrate, while uncleaved, phosphorylated substrate maintains FRET.
(§2) To test the ability of candidate molecules to inhibit JAK tyrosine phosphorylation activity, molecules are reconstituted in 100% DMSO and serially diluted 1:10 in polypropylene v-bottom microtiter plates. The candidate molecules are then diluted 1:25 into kinase buffer and 2.5 μl transferred into duplicate wells of a 384 well low volume black microtiter assay plate (Corning, USA). The final DMSO concentration in the assay is 1%. The kinase reaction contains 2.5 μl of a candidate molecule, 5 μl of catalytic domain recombinant Kinase enzyme+Tyr peptide substrate (Invitrogen, CA) and 2.5 μl ATP (Invitrogen, CA). The kinase reaction is allowed to procede for 1 hour at room temperature. The protease reaction is initiated by the addition of 5 μl Development Reagent (Invitrogen, CA). After 1 hour incubation at room temperature the fluorescence is measured using a FlexStation plate reader (Molecular Devices, Sunnyvale, Calif.).

[2] = biological target: T2, JAK1 (Homo sapiens, UniProt P23458); test: Z'-LYTE kinase assay JAK1
T2 construct: 5 μl of catalytic domain recombinant Kinase enzyme+Tyr peptide substrate (Invitrogen, CA); purchased Invitrogen
T2 sequence (P23458 875-1153 limits assumed): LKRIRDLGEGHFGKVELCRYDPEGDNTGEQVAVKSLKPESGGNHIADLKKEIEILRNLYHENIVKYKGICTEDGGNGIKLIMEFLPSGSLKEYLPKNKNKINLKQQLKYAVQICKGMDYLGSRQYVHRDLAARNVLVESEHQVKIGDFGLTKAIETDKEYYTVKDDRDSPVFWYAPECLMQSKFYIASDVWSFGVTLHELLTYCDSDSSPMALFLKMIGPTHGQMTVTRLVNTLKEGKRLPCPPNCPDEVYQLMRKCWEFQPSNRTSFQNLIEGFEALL
Protocol: as §1, §2

[3] = biological target: T3, JAK3 (Homo sapiens, UniProt P52333); test: Z'-LYTE kinase assay JAK3
T3 construct: 5 μl of catalytic domain recombinant Kinase enzyme+Tyr peptide substrate (Invitrogen, CA); purchased Invitrogen
T3 sequence (P52333 822-1111 limits assumed): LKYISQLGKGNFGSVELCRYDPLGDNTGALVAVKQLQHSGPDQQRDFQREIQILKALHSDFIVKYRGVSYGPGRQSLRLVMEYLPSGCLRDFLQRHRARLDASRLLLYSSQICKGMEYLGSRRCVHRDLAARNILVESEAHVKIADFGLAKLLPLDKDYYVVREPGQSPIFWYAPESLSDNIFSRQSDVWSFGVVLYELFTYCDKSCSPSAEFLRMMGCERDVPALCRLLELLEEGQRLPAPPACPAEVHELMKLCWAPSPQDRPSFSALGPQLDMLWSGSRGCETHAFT
Protocol: as §1, §2

T1 sequence (O60674 849-1124 limits assumed): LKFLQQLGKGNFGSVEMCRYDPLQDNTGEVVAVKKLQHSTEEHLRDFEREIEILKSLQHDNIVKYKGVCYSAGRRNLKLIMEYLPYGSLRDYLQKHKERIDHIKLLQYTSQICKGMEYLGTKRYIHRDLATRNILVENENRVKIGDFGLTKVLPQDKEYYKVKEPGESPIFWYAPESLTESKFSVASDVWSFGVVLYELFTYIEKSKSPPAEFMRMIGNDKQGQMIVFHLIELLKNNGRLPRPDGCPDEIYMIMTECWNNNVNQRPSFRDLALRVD

| SMILES | IC50 [1] [nM] | IC50 [2] [nM] | IC50 [3] [nM] |
| --- | --- | --- | --- |
| CS(=O)(=O)Cc1ccc(Nc2cc(NCc3cccc(-c4ccncc4)c3)c(C(N)=O)cn2)cc1 [Example 418, 6-(4-(methylsulfonylmethyl)phenylamino)-4-(3-(pyridine-4-yl)benzylamino)nicotinamide] | 100 to 1000 | 100 to 1000 | 1 to 10 |
| CN(C)C(=O)C1CN(c2ccc(Nc3cc(NCc4ccccc4)c(C(N)=O)cn3)cc2)C1 [Example 331, 4-(benzylamino)-6-(4-(3-(dimethylcarbamoyl)azetidin-1-yl)phenylamino)nicotinamide] | 100 to 1000 | 100 to 1000 | 1 to 10 |
| CCS(=O)(=O)N1CCC(Nc2cc(Nc3ccc(C4CCOCC4)cc3)ncc2C(N)=O)CC1 [Example 166, 4-(1-(ethylsulfonyl)piperidin-4-ylamino)-6-(4-(tetrahydro-2H-pyran-4-yl)phenylamino)nicotinamide] | 100 to 1000 | > 1000 | 100 to 1000 |
| COC[C@@H](Nc1cc(Nc2ccc(OC)cc2)ncc1C(N)=O)c1ccccc1 [Example 260, (S)-4-(2-methoxy-1-phenylethylamino)-6-(4-methoxyphenylamino)nicotinamide] | > 1000 | > 1000 | 10 to 100 |
| NC(=O)c1cnc(Nc2ccc3cnccc3c2)cc1NCc1ccccc1 [Example 88, 4-(benzylamino)-6-(isoquinolin-6-ylamino)nicotinamide] | > 1000 | > 1000 | 10 to 100 |
| NC(=O)c1cnc(Nc2ccc(-n3cccn3)nc2)cc1NCc1ccccc1 [Example 278, 6-(6-(1H-pyrazol-1-yl)pyridin-3-ylamino)-4-(benzylamino)nicotinamide] | > 1000 | > 1000 | 100 to 1000 |
| CCC(=O)N(C)c1ccc(Nc2cc(NCc3cncc(F)c3)c(C(N)=O)cn2)cc1 [Example 480, 4-((5-fluoropyridin-3-yl)methylamino)-6-(4-(N-methylpropionamido)phenylamino)nicotinamide] | 100 to 1000 | > 1000 | 10 to 100 |
| COc1cc(Nc2cc(NC[C@H]3CCCN(C(C)=O)C3)c(C(N)=O)cn2)ccc1C(=O)N(C)C [Example 441, (R)-4-((1-acetylpiperidin-3-yl)methylamino)-6-(4-(dimethylcarbamoyl)-3-methoxyphenylamino)nicotinamide] | 100 to 1000 | > 1000 | 10 to 100 |
| CC(=O)N1CCC(CNc2cc(Nc3ccc(C(=O)N4CCCC4)cc3)ncc2C(N)=O)CC1 [Example 43, 4-((1-acetylpiperidin-4-yl)methylamino)-6-(4-(pyrrolidine-1-carbonyl)phenylamino)nicotinamide] | > 1000 | > 1000 | 100 to 1000 |
| CN(C)C(=O)c1ccc(Nc2cc(NCc3ccccc3)c(C(N)=O)cn2)cc1C(F)(F)F [Example 272, 4-(benzylamino)-6-(4-(dimethylcarbamoyl)-3-(trifluoromethyl)phenylamino)nicotinamide] | > 1000 | > 1000 | 10 to 100 |
| Cc1cc(Nc2cc(NCc3cccc4[nH]ccc34)c(C(N)=O)cn2)ccc1C(=O)N1CCC1 [Example 460, 4-((1H-indol-4-yl)methylamino)-6-(4-(azetidine-1-carbonyl)-3-methylphenylamino)nicotinamide] | 1 to 10 | 1 to 10 | < 1 |
| CCC(=O)N1CCN(c2ccc(Nc3cc(NC4(c5cccc(F)c5F)CC4)c(C(N)=O)cn3)cc2)CC1 [Example 374, 4-(1-(2,3-difluorophenyl)cyclopropylamino)-6-(4-(4-propionylpiperazin-1-yl)phenylamino)nicotinamide] | 10 to 100 | 100 to 1000 | 1 to 10 |
| CC(=O)N1CCN(c2ccc(Nc3ncc(C(N)=O)c(NCc4cccc(F)c4)c3Cl)cc2)CC1 [Example 376] | > 1000 | > 1000 | 100 to 1000 |
| NC(=O)c1cnc(Nc2cccc(C3CCOCC3)c2)cc1NCc1cc(F)cc(F)c1 [Example 206, 4-(3,5-difluorobenzylamino)-6-(3-(tetrahydro-2H-pyran-4-yl)phenylamino)nicotinamide] | 10 to 100 | 100 to 1000 | 1 to 10 |
| COCC(=O)N1CCC[C@H](CNc2cc(Nc3ccc(OC)cc3)ncc2C(N)=O)C1 [Example 55, (R)-4-((1-(2-methoxyacetyl)piperidin-3-yl)methylamino)-6-(4-methoxyphenylamino)nicotinamide] | > 1000 | > 1000 | 10 to 100 |
| CC(=O)N1CC(c2ccc(Nc3cc(NCc4cncc(F)c4)c(C(N)=O)cn3)cc2)C1 [Example 334, 6-(4-(1-acetylazetidin-3-yl)phenylamino)-4-((5-fluoropyridin-3-yl)methylamino)nicotinamide] | 100 to 1000 | 100 to 1000 | 10 to 100 |
| N#CCc1ccc(Nc2cc(NCc3ccccc3)c(C(N)=O)cn2)cc1 [Example 390] | 100 to 1000 | 100 to 1000 | 10 to 100 |
| CN(C)C(=O)c1ccc(Nc2cc(NCC3CCCC3)c(C(N)=O)cn2)cc1 [Example 96, 4-(cyclopentylmethylamino)-6-(4-(dimethylcarbamoyl)phenylamino)nicotinamide] | 100 to 1000 | 100 to 1000 | 10 to 100 |
| COCC(=O)N1CCC[C@H](CNc2cc(Nc3ccc(C(=O)N(C)C)cc3)ncc2C(N)=O)C1 [Example 266, (R)-6-(4-(dimethylcarbamoyl)phenylamino)-4-((1-(2-methoxyacetyl)piperidin-3-yl)methylamino)nicotinamide] | > 1000 | > 1000 | 10 to 100 |

Further lines, results first:

| IC50 [1] [nM] | IC50 [2] [nM] | IC50 [3] [nM] | SMILES |
| --- | --- | --- | --- |
| 1 to 10 | 10 to 100 | 1 to 10 | CCC(=O)N1CC(c2ccc(Nc3cc(NCc4cccc5[nH]ccc45)c(C(N)=O)cn3)cc2)C1 [Example 492, 4-((1H-indol-4-yl)methylamino)-6-(4-(1-propionylazetidin-3-yl)phenylamino)nicotinamide] |
| 10 to 100 | 10 to 100 | 1 to 10 | CC(=O)NCc1ccc(Nc2cc(NCc3cccc4ccsc34)c(C(N)=O)cn2)cc1 [Example 352, 6-(4-(acetamidomethyl)phenylamino)-4-(benzo[b]thiophen-7-ylmethylamino)nicotinamide] |
| 10 to 100 | 100 to 1000 | 1 to 10 | NC(=O)c1cnc(Nc2ccc(C3CNC3)cc2)cc1NCc1cccc(F)c1F [Example 212, 6-(4-(azetidin-3-yl)phenylamino)-4-(2,3-difluorobenzylamino)nicotinamide] |
| 100 to 1000 | > 1000 | 1 to 10 | NC(=O)c1cnc(Nc2ccc(C3CNC3)cc2)cc1NCc1ccccc1 [Example 325, 6-(4-(azetidin-3-yl)phenylamino)-4-(benzylamino)nicotinamide] |
| 100 to 1000 | > 1000 | 10 to 100 | NC(=O)c1cnc(Nc2ccc(C3CCOCC3)cc2)cc1NCc1ccccn1 [Example 174, 4-(pyridin-2-ylmethylamino)-6-(4-(tetrahydro-2H-pyran-4-yl)phenylamino)nicotinamide] |
| 100 to 1000 | > 1000 | 10 to 100 | COC(=O)N1CC(c2ccc(Nc3cc(NCc4ccccc4)c(C(N)=O)cn3)cc2)C1 [Example 327, methyl 3-(4-(4-(benzylamino)-5-carbamoylpyridin-2-ylamino)phenyl)azetidine-1-carboxylate] |
| 100 to 1000 | > 1000 | 1 to 10 | CCC(=O)N1CCC(c2ccc(Nc3cc(NCc4cccc5ccsc45)c(C(N)=O)cn3)cc2)CC1 [Example 211, 4-(benzo[b]thiophen-7-ylmethylamino)-6-(4-(1-propionylpiperidin-4-yl)phenylamino)nicotinamide] |
| 100 to 1000 | 100 to 1000 | 1 to 10 | CN(C)C(=O)C1CCN(c2ccc(Nc3cc(NCc4cccc5ccsc45)c(C(N)=O)cn3)cc2Cl)CC1 [Example 351, 4-(benzo[b]thiophen-7-ylmethylamino)-6-(3-chloro-4-(4-(dimethylcarbamoyl)piperidin-1-yl)phenylamino)nicotinamide] |
| > 1000 | > 1000 | 100 to 1000 | COc1ccc(Nc2cc(NCc3cccc4ccn(C)c34)c(C(N)=O)cn2)cc1 [Example 317, 6-(4-methoxyphenylamino)-4-((1-methyl-1H-indol-7-yl)methylamino)nicotinamide] |
